Measurements published in patent publication US20110144213A1, “ANHYDROUS DEPIGMENTING COMPOSITIONS COMPRISING A SOLUBILIZED PHENOLIC COMPOUND” (priority 2008, published 2011).
Read-outs that look alike come from different tables or passages of the source.

Columns and labels:
[1] = Max. solubility of the active agents in solvent oils, lipophilic surfactants and alcoholic or glycolic solvents (HPLC); format: physicochemical; details: rucinol in all the solvents tested
Text: a) Solubilities and Stabilities of Hydroquinone in Solvent Oils and Lipophilic Surfactants Hydroquinone Solubilities
The above table makes it possible to identify which solvents are the most solubilizing for the active agent, for optimum selection of the ingredients of the composition. However, the choice of solvent will also be made on the basis of the results of the stability of hydroquinone in these solvents. […]
b) Solubilities and Stabilities of Rucinol in Solvent Oils and Lipophilic Surfactants […]
However, the optimum choice of solvent will also be made on the basis of the results of the stability of rucinol in these solvents.

[2] = cited from earlier work
[3] = Stability of the active agents in solvent oils and lipophilic surfactants (HPLC assay against reference substance, colour); format: physicochemical; details: for Colour: 40° C.
Text: Stability of Hydroquinone in Solvent Oils and Lipophilic Surfactants
Assay technique by HPLC against reference substance.
The initial time (T0) is considered as 100%
The above table makes it possible to evaluate the stability of hydroquinone in the various solubilizing agents identified previously.
Stability of Rucinol in Solvent Oils and Lipophlic Surfactants
The initial time (T0) is considered as 100%.
The table below makes it possible to evaluate the stability of rucinol in the solubilizing agents identified previously.

| solubility (in words) [1] | Colour ([3]; hydroquinone in Ethanol/water (20/80), 1 MONTH) | Colour ([3]; hydroquinone in Glycerol, 1 MONTH) | Colour ([3]; hydroquinone in Propylene glycol, 3 MONTHS) | stability of hydroquinone (in words) ([3]; in Cremophor EL, browning that becomes pronounced over time and with temperature) | stability of hydroquinone (in words) ([3]; in Crodamol DA, Arlamol E and Labrasol, macroscopic observation of the colour) | stability of hydroquinone (in words) ([3]; in solvents of the prior art such as glycols, RT and 40° C., absence of antioxidants) | SMILES | incidence of the irritation ([2]; 10% hydroquinone concentrations) | incidence of the irritation ([2]; concentration of 2%) | incidence of the irritation ([2]; preparations with a 5% dose) |
| --- | --- | --- | --- | --- | --- | --- | --- | --- | --- | --- |
| very good solubility |  |  |  |  |  |  | CCCCc1ccc(O)cc1O [Rucinol, 4-butylresorcinol] |  |  |  |
|  | Dark | Dark | Dark | macroscopic instability | good chemical and physical stability | a colouration is observed | Oc1ccc(O)cc1 [Hydroquinone, hydroquinone] | relatively high | virtually nonexistent | reduces greatly |
